Data taken from PMC10126473 (Frontiers in Pharmacology, 2023).

Assays:
[1] = Metabolic stability in plasma; conditions: for Plasma k: mouse, in vitro
[2] = Parallel artificial membrane permeability assay (PAMPA); conditions: pH 7.4
Method: The test samples (0.05 mM test article in pH 7.4 buffer with 0.5% DMSO) were added in the donor compartment and were stirred using the Gutbox technology (Pion Inc.) to reduce the aqueous boundary layer. The test article concentrations in the donor and acceptor compartments were measured using a UV plate reader (Nano Quant, Infinite 200 PRO, Tecan Inc., Männedorf, Switzerland).

[3] = Metabolic stability and biotransformation in liver microsomes; conditions: for Liver Vmax: in vitro
Method: (§1) The incubation was carried out at 37°C for 15, 30, and 60 min. The reaction in plasma or liver microsomes was quenched by adding 200 μL of cold acetonitrile (containing 100 ng/mL tolbutamide as internal standard).
(§2) The mc was the microsome concentration used in the incubation (0.5 mg/mL). The substrate disappearance half-life (t1/2) was estimated by regression analysis of the semi-logarithmic (ln Conc vs. time) plots. […] The Vmax, in vitro,app, PDN-total and Km for PDN depletion in liver microsomes were estimated by the Michaelis-Menten model using GraphPad Prism version 8.

[4] = Metabolic stability in plasma; conditions: for Plasma k: hamster, in vitro
[5] = Kinetic aqueous solubility (Pion µSOL assay); conditions: pH 7.4
Method: Samples were incubated at room temperature for 6 h and vacuum-filtered using Tecan Te-Vac to remove any precipitates. The concentration of the compound in the filtrate was measured via UV absorbance (λ: 250–498 nm). […] All compounds were tested in duplicates. The kinetic solubility (µg/mL) of compounds was calculated using the µSOL Evolution software.

[6] = Metabolic stability and biotransformation in liver microsomes; conditions: for Liver Vmax: in vitro; remark: listed apart in the source
Method: as §1, §2

[7] = PBPK model (GastroPlus): simulation and model parameters incl. permeability surface product and scaled metabolic kinetics, hamster; conditions: for Liver Vmax / Plasma k: in vivo (scaled)
Method: CL in vitro,app expressed as mL/min/mg microsomes were scaled to the predicted CLintrinsic using scaling factor (SF), microsome level and liver weight as indicated below: CLintrinsic=CLin vitro,app×SF×liver weight×microsome level per gram liver
All modeling and simulation were carried out using GastroPlus version 9.5 (Simulations Plus Inc., CA). Physiochemical parameters including blood-to-plasma ratio (Rbp), pKa, and logP were predicted by ADMET predictor (Simulations Plus Inc., CA). Physiologies of all species, including organ weights, volumes, tissue compositions, and blood perfusion rates, were generated by the program’s internal module. Tissue intracellular unbound fractions were generated by GastroPlus based on predicted or experimentally determined physiochemical and chemical-biological parameters including pKa, logP, plasma unbound fractions (Fup), Rbp, solubility, and PAMPA permeability. The PBPK model structure is illustrated in Figure 2 and its parameters are summarized in Supplementary Tables S3–6. The default absorption and dissolution model was applied and effective intestine permeability was predicted by a built-in correlation from the experimental PAMPA permeability result. Parameters including partition coefficients in tissue (Kp), CLintrinsic, and permeability surface area product (PStc) were estimated by fitting the model to experimental data using the optimization module in GastroPlus with objective function weights at 1/(y + ŷ)^2, where y is the observed value and ŷ is the predicted value.
Experimental measurements of hamster plasma pharmacokinetics and lung concentrations were used in the model validation.

## O=C(Nc1ccc([N+](=O)[O-])cc1Cl)c1cc(Cl)ccc1OC(=O)N1CCNCC1 [PDN]
[1]; conversion to Nc
  Plasma k: 0.0058 s⁻¹
[1]; conversion to Others
  Plasma k: 0.0062 s⁻¹
[1]; mouse plasma, 37°C
  kin vitro,app, PDN-total (total depletion of PDN): 0.0120 ± 0.0015 min⁻¹
[2]
  Papp at 0.05 mM: > 100 ×10⁻⁶ cm/s
[3]; conversion to Nc, hamster
  Liver Vmax: 0.0085 mg/s/mg microsomes
[3]; conversion to Nc, hamster, in vitro (in vitro liver parameters)
  Gut Vmax: 0.0085 mg/s/mg microsomes
[3]; conversion to Others, hamster
  Liver Vmax: 0.1059 mg/s/mg microsomes
[3]; hamster liver microsomes
  Vmax in vitro,app, PDN-total: 1.238 ± 0.133 nmol/min/mg
[3]; hamster, pH 7.4
  Km: 10.8 ± 3.04 µM
[4]; conversion to Nc
  Plasma k: 0.0045 s⁻¹
[4]; conversion to Others
  Plasma k: 0.0146 s⁻¹
[4]; hamster plasma, 37°C
  kin vitro,app, PDN-total (total depletion of PDN): 0.0191 ± 0.0044 min⁻¹
[5]
  increase in solubility compared with Nc: 40 fold
  solubility kinetic at 6 h: > 43.5 µg/mL
[6]; conversion to Nc, mouse
  Liver Vmax: 0.00095 mg/s/mg microsomes
[6]; conversion to Nc, mouse, in vitro (in vitro liver parameters)
  Gut Vmax: 0.00095 mg/s/mg microsomes
[6]; conversion to Others, mouse
  Liver Vmax: 0.1484 mg/s/mg microsomes
[6]; mouse liver microsomes
  Vmax in vitro,app, PDN-total: 1.327 ± 0.106 nmol/min/mg
[6]; mouse, pH 7.4
  Km: 20.2 ± 3.31 µM
[7]; conversion to Nc
  Liver Vmax: 0.0130 mg/s/mg microsomes
  Plasma k: 0.0052 s⁻¹
[7]; conversion to Nc, in vivo, predicted from in vitro liver parameters
  Gut Vmax: 0.0004 mg/s/mg microsomes
[7]; conversion to Others
  Liver Vmax: 0.1649 mg/s/mg microsomes
  Plasma k: 0.0189 s⁻¹
